Test results taken from patent US10167258B2, “Inhibitors of mitochondrial pyruvate dehydrogenase kinase isoforms 1-4 and uses thereof” (The Board of Regents of the University of Texas System, priority 2013, dated 2019).
Where two headings read alike, the source gives them in different places.

Tests used:
PDK4 [1] = biological target: T1, PDK4 (Homo sapiens, UniProt Q16654); conditions: literature value; cited from earlier work
Target sequence in this assay (Q16654 whole entry, species assumed): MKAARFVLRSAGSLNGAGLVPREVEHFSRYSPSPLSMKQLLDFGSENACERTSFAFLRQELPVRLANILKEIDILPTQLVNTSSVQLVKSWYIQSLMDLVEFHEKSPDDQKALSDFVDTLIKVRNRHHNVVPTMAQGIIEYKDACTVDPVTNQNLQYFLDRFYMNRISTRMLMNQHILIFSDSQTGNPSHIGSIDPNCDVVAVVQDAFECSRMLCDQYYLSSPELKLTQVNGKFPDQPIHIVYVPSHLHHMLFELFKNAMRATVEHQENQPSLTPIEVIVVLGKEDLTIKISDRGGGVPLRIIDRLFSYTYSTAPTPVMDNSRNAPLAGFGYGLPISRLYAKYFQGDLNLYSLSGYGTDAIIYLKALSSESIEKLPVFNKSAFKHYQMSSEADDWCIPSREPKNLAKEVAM

Hsp90 = conditions: literature value; cited from earlier work
PDK2 [2] = biological target: T2, PDK2 (Homo sapiens, UniProt Q15119); assay: Assay for inhibition of PDK activity, PDK2; assay type: biochemical; design: made in house
Experimental: (§1) Recombinant human PDK2 was expressed and purified as a N terminal His6-tagged SUMO fusion protein with a tobacco-etch-virus protease (TEV) cleavage site in front of the N-terminal PDK2 sequence (26), and was used directly for the activity assay and binding affinity analyses. […] The purified protein was concentrated to 35-40 mg/ml and stored at −80° C. in small aliquots. Recombinant human PDK1, PDK3 and PDK4 were expressed and purified as described previously (26).
(§2) The remaining steps were described previously (26). IC50 values were obtained by the curve fitting of inhibition isotherms using Prism 6 (GraphPad software, Inc.).

PDK4 [3] = biological target: T1, PDK4; assay: Assay for inhibition of PDK activity, PDK4; assay type: biochemical; design: made in house
Experimental: as §1, §2
Target sequence in this assay (Q16654 whole entry): as the sequence (Q16654 whole entry, species assumed) above

PDK2 [4] = biological target: T2, PDK2; assay: Isothermal titration calorimetry (ITC), binding to PDK2; design: made in house
Experimental: as §1
(§3) The PDK2 or Hsp90 N-terminal domain protein was dialyzed against one liter of the dialysis buffer containing 50 mM Tris-Cl, pH 7.5, 50 mM KCl, 1 mM MgCl2, and 0.5 mM β-mercaptoethanol. […] All of the ITC data were initially analyzed by the NITPIC program (32) to construct the baseline, followed by curve-fitting in Origin 7 to obtain binding parameters.

[5] = biological target: T3, N-terminal domain of human Hsp90 (Homo sapiens, UniProt P07900); assay: Isothermal titration calorimetry (ITC), binding to Hsp90 N-terminal domain; conditions: read-out: Kd, nM for Hsp 90
T3 construct: the N-terminal domain (residue 1-236) of human Hsp90; His6 (N); SUMO (N); made in house; host or cells: E. coli BL21
Experimental: The sequence encoding the N-terminal domain was amplified and cloned into the pSUMO expression vector (Lifesensors, Malvern, Pa.). The fusion protein of His6-tagged SUMO-Hsp90 N-terminal domain was expressed in E. coli BL21 cells and purified with Ni-NTA resin (Qiagen) and on Superdex-200 column in 20 mM Tris.HCl, pH 7.5 and 500 mM NaCl.
as §3

human PDK1 = biological target: T4, human PDK1 (Homo sapiens, UniProt Q15118); assay: Assay for inhibition of PDK activity, PDK1; assay type: biochemical
T4 construct: made in house
Experimental: (§4) Recombinant human PDK2 was expressed and purified as a N terminal His6-tagged SUMO fusion protein with a tobacco-etch-virus protease (TEV) cleavage site in front of the N-terminal PDK2 sequence (26), and was used directly for the activity assay and binding affinity analyses. For crystallization, the protein was subjected to a TEV-protease digestion, and the untagged PDK2 protein was purified on a Superdex 200 column in 20 mM Tris-HCl (pH 8.0), 150 mM NaCl and 5 mM DTT. The purified protein was concentrated to 35-40 mg/ml and stored at −80° C. in small aliquots. Recombinant human PDK1, PDK3 and PDK4 were expressed and purified as described previously (26).
(§5) . The remaining steps were described previously (26). IC50 values were obtained by the curve fitting of inhibition isotherms using Prism 6 (GraphPad software, Inc.).

PDK2 [6] = biological target: T2, PDK2; assay: biochemical
Experimental: The kinase-profiling of PS8 on 21 human protein kinases were performed at Reaction Biology Corp. (Malvern, Pa.). […] Each protein kinase was also tested against its known inhibitor as a positive control.
The selectivity of PS8 was studied by determining IC50 for the inhibition of a 21-kinase panel including PDK2. […] Except PDK4, PDK isoforms anchor to the E2/E3BP of PDC for optimal kinase activity in vivo.

[7] = Half-life in vitro in hepatic S9 fractions; assay type: in vitro ADME; conditions: data not shown
[8] = Pharmacokinetic studies in mice after IP dosing; assay type: in vivo; conditions: 20 mg/kg IP, female CD-1 mice, plasma
Experimental: Twenty-one male C57BL/6J mice were dosed IP with 70 mg/kg PS-10, 0.2 ml/mouse formulated as 10% DMSO/20% water/70% of 25% (2-hydroxypropyl)-β-cyclodextrin for determination of PS-10 PK. Twenty-one female CD-1 mice were dosed IP with 20 mg/kg PS-8, 0.2 ml/mouse formulated as 5% ethanol and 95% of 0.1 M sodium bicarbonate pH 9.0 for determination of PS-8 PK. Animal (n=3) were sacrificed and whole blood was harvested for each time point. Plasma was processed from whole blood by centrifugation of the ACD treated blood for 10′ at 10,000 rpm in a standard centrifuge. The analytical processing of blood samples and pharmacokinetics studies using LC/MS/MS were as described previously with LC/MS/MS methods optimized for detection of PS-10 and PS-8 (33).

PDK3 [9] = biological target: T5, PDK3 (Homo sapiens, UniProt Q15120); assay: Assay for inhibition of PDK activity, PDK3; assay type: biochemical; design: made in house
Experimental: as §4, §5
Target sequence in this assay (Q15120 whole entry): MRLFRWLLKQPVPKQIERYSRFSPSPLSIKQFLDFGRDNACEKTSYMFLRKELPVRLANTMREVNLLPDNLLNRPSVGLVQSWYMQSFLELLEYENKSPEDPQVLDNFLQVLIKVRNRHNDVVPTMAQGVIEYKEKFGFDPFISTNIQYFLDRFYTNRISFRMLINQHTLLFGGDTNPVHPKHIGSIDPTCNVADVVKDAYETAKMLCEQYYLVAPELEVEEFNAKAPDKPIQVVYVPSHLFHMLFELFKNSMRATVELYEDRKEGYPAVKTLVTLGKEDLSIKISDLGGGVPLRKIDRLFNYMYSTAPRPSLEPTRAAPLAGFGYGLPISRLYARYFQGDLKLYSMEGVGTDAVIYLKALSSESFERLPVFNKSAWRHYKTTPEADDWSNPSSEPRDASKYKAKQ

PDK3 [10] = biological target: T5, PDK3; conditions: literature value; read-out: IC50 (ATP-competitive inhibitor, PDK3); cited from earlier work
Target sequence in this assay (Q15120 whole entry, species assumed): as the sequence (Q15120 whole entry) above

PDK = conditions: literature value; read-out: IC50 (known PDK inhibitor); cited from earlier work
[11] = Table 1, inhibitor 31.6 nM to 1 mM, read-out: IC50, μM for PDK2
[12] = Table 1, inhibitor 31.6 nM to 1 mM, read-out: IC50, μM for PDK4

T4 sequence (Q15118 29-436): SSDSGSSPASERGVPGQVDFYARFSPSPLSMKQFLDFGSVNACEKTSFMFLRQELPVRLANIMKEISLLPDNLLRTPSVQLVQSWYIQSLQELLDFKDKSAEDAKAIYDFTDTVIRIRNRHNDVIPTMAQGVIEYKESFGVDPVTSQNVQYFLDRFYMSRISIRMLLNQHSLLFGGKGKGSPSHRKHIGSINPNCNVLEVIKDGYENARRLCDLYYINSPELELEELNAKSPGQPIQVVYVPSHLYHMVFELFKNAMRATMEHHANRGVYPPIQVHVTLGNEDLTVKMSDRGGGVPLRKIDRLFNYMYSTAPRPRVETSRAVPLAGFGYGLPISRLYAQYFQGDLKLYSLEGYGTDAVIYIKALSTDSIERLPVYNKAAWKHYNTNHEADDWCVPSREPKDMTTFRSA

COc1ccc(-c2c(-c3ccc(O)cc3O)n[nH]c2C)cc1 [Compound M77976]
IC50 (PDK4 [1]): 648000 nM | IC50 (Hsp90): 4400 nM

O=C(c1cc(Br)c(O)cc1O)N1Cc2ccccc2C1 [PA1, (5-bromo-2,4-dihydroxyphenyl)(isoindolin-2-yl)methanone]
IC50 (PDK2 [2]; [11]): 6.78 µM | IC50 (PDK4 [3]; [12]): 1.86 µM | Kd (PDK2 [4]; ITC, read-out: Kd, nM for PDK2): 3570 nM

O=C(c1ccc(O)cc1O)N1Cc2ccccc2C1 [PA7, (2,4-dihydroxyphenyl)(isoindolin-2-yl)methanone]
IC50 (PDK2 [2]; [11]): 5.68 µM | IC50 (PDK4 [3]; [12]): 1.05 µM | Kd (PDK2 [4]; ITC, read-out: Kd, nM for PDK2): 1830 nM

O=S(=O)(c1ccc(O)cc1O)N1Cc2ccccc2C1 [PS2, 4-(isoindolin-2-ylsulfonyl)benzene-1,3-diol]
Kd [5]: 50900 nM | IC50 (PDK2 [2]; [11]): 2.11 µM | IC50 (PDK4 [3]; [12]): 2.2 µM | Kd (PDK2 [4]; ITC, read-out: Kd, nM for PDK2): 711 nM | shift in binding affinities in favor of PDK2 (carbonyl in PA7 to sulfonyl in PS2) (PDK2 [4]; from Kd values for PDK2 and Hsp90): 4,791 fold

O=S(=O)(c1ccc(O)cc1O)N1Cc2ccc(O)cc2C1 [PS8, 4-((5-hydroxyisoindolin-2-yl)sulfonyl)benzene-1,3-diol]
IC50 (human PDK1; absence of E2/E3BP core (−)): 2500 ± 140 nM | IC50 (human PDK1; presence of E2/E3BP core (+)): 2140 ± 330 nM | Kd [5]: 60100 nM | IC50 (PDK2 [6]): 70 nM | IC50 of all other kinases on the panel relative to PDK2 (PDK2 [6]; 21-kinase panel, next lowest CDK1/cyclin B): at least 3 orders of magnitude | half-life [7]: > 4 h | CL/F [8]: 1.55 mL/min | AUC(0-t) ([8]; mouse): 5170 ng·h/mL | Cmax ([8]; mouse): 7600 ng/mL | Tmax ([8]; mouse): 0.167 h | half-life ([8]; mouse, read-out: Terminal T1/2): 1.55 h | Vd/F ([8]; mouse, read-out: Vz/F): 0.209 L | IC50 (PDK2 [2]; [11]): 1.07 µM | IC50 (PDK2 [2]; presence of E2/E3BP core (+), read-out: IC50 for PDK2): 0.71 ± 0.14 µM | IC50 (PDK4 [3]; [12]): 1.1 µM | IC50 (PDK4 [3]; presence of E2/E3BP core (+), read-out: IC50 for PDK4): 0.84 ± 0.08 µM | IC50 (PDK3 [9]; absence of E2/E3BP core (−)): 13700 ± 2080 nM | IC50 (PDK3 [9]; presence of E2/E3BP core (+)): 2550 ± 380 nM | Kd (PDK2 [4]; ITC, read-out: Kd, nM for PDK2): 426 nM

O=S(=O)(c1ccc(O)cc1O)N1Cc2ccc(NC3CCNCC3)cc2C1 [PS35]
IC50 (PDK2 [2]): 0.61 µM | Kd (PDK2 [4]): 143 nM

O=S(=O)(c1ccc(O)cc1O)N1Cc2ccc(NC3CCN(CC(O)CO)CC3)cc2C1 (stereo not shown) [PS38]
Kd (PDK2 [4]): 188 nM

O=C(C1C[C@@H](O)C(O)[C@H](O)C1)N1CCC(Nc2ccc3c(c2)CN(S(=O)(=O)c2ccc(O)cc2O)C3)CC1 (stereo partly shown) [PS39]
Kd (PDK2 [4]): 338 nM

O=C(C1=C[C@@H](O)[C@@H](O)[C@H](O)C1)N1CCC(Nc2ccc3c(c2)CN(S(=O)(=O)c2ccc(O)cc2O)C3)CC1 [PS40]
Kd (PDK2 [4]): 403 nM

O=C(O)CCCCN1CCC(Nc2ccc3c(c2)CN(S(=O)(=O)c2ccc(O)cc2O)C3)CC1 [PS41]
Kd (PDK2 [4]): 1400 nM

O=C(O)CCCN1CCC(Nc2ccc3c(c2)CN(S(=O)(=O)c2ccc(O)cc2O)C3)CC1 [PS42]
Kd (PDK2 [4]): 917 nM

C[C@@H]1C[C@H]2O[C@@H]2/C=C\C=C\C(=O)Cc2c(Cl)c(O)cc(O)c2C(=O)O1 [Radicicol, radicicol, reference compound]
IC50 (PDK3 [10]): 230000 to 400000 nM | IC50 (PDK2 [2]; [11]): 77.8 µM | Kd (PDK2 [4]; ITC, read-out: Kd, nM for PDK2): 18600 nM

C[C@@H]1CN(C(=O)[C@@](C)(O)C(F)(F)F)[C@@H](C)CN1C(=O)c1ccc(C#N)cc1 [compound 3, (+)-1-N-[2,5-(S,R)-dimethyl-4-N-(4-cyanobenzoyl)piperazine]-(R)-3,3,3-trifluoro-2-hydroxy-2-methylpropan-amide]
IC50 (PDK): 16 nM
